The results in this text go back to ChEMBL document CHEMBL4196219, “Rare Thioglycosides from the Roots of Wasabia japonica” (J Nat Prod, 2018).

Broadly, the pIC50 is the negative decadic logarithm of the IC50, by convention in mol/L.

The experiment relates to BV-2. The experiment can be described thus: Antiinflammatory activity in mouse BV2 cells assessed as inhibition of LPS-induced nitric oxide production after 24 hrs by Griess reagent based assay. It is filed as functional, cell-based. To be noted: BV-2, 24 h. (The Griess reaction detects nitrite, a stable product of nitric oxide.)

pIC50: −log10 of the molar value.

As to `C[C@@H]1CSS[C@@H]2O[C@H](CO)[C@@H](O)[C@H](O)[C@H]2OC1=O`, the negative logarithm of the IC50 (pIC50) is 4.39.
